Laboratory results taken from patent EP4721746A1, “TREATMENT OF MALIGNANT TUMOR” (SymBio Pharmaceuticals Limited, priority 2023, dated 2024).

What was measured:
[1] = tested on: NK/T-cell lymphoma cell lines; experiment: CellTiter-Glo 2.0 cell viability assay, NK/T-cell lymphoma cell lines; type: cell-based; settings: 11 NK/T-cell lymphoma cell lines; Fig. 1
Procedure: The effect of BCV on cell viability was examined in 11 different NK/T-cell lymphoma cell lines. Cell viability was quantified using Promega CellTiter-Glo(registered trademark) 2.0 Cell Viability Assay (Promega, Madison, Wisconsin, USA) according to the manufacturer's protocol. Specifically, cells were plated in a 96-well plate at a concentration of 2×10^3 cells in 100 µL of culture medium, and the drug (BCV) was added at each concentration. After each time point, Promega CellTiter-Glo (registered trademark) 2.0 Cell Viability Assay reagent was added to the wells and incubated at room temperature for 10 minutes, and subsequently, absorbance at 480 nm was measured using a Tecan M200 Infinite 96-well plate reader and iControl software 1.6 (Tecan, Männedorf, Switzerland). Cell viability was calculated as a percentage of the control absorbance. The growth-inhibitory effect was analyzed by generating a dose-response curve as a plot of the percentage of viable cells against the drug concentration, and their IC50s were estimated using GraphPad Prism version 8.0.2 (GraphPad Software). All reactions were performed in triplicate.

[2] = tested on: NK/T-cell lymphoma cells (NK-S1); experiment: In vivo study, NSG mice inoculated with NK-S1
Procedure: (§1) 0.5 x 10^6 cells of NK-S1 were inoculated into 6-week-old female NSG mice, and BCV or a control solvent was administered intraperitoneally at a dosage of 40 mg/kg twice weekly. Tumor measurements were recorded twice weekly until the tumor size in the control group reached approximately 2000 mm^3. Mice were euthanized according to the IACUC guidelines. The tumor sizes of the experimental group and the control group (n=8 per group) were averaged at each time point (Days 1, 5, 8, 12, and 15) and compared statistically. Throughout the experiment, signs of toxicity including diarrhea and weight loss were monitored.

[3] = tested on: T-cell lymphoma cell lines; experiment: CellTiter-Glo 2.0 cell viability assay, T-cell lymphoma cell lines; type: cell-based; settings: 11 T-cell lymphoma cell lines; Fig. 9
Procedure: The effect of BCV on the viability of 11 different T-cell lymphoma cell lines was examined. Cell viability was quantified using Promega CellTiter-Glo(registered trademark) 2.0 Cell Viability Assay (Promega, Madison, Wisconsin, USA) according to the manufacturer's protocol. Specifically, cells were plated in a 96-well plate at a concentration of 2×10^3 cells in 100 µL of culture medium, and the drug was added at each concentration. After each time point, Promega CellTiter-Glo(registered trademark) 2.0 Cell Viability Assay reagent was added to the wells and incubated at room temperature for 10 minutes, and subsequently, absorbance at 480 nm was measured using a Tecan M200 Infinite 96-well plate reader and iControl software 1.6 (Tecan, Männedorf, Switzerland). Cell viability was calculated as a percentage of a control absorbance. The growth-inhibitory effect was analyzed by generating a dose-response curve as a plot of the percentage of viable cells against the drug concentration, and their IC50s were estimated using GraphPad Prism version 8.0.2 (GraphPad Software). All reactions were performed in triplicate.

[4] = tested on: T-cell lymphoma cells (Z4739); experiment: In vivo study, NSG mice inoculated with Z4739
Procedure: as §1, with “of Z4739” for “of NK-S1”, “recorded at each time point (Days 4, 7, 11, 18, and 21)” for “recorded twice weekly”, “approximately 2500” for “approximately 2000”, “sizes and weights” for “sizes”, “group (n=5” for “group (n=8”, “averaged on Day 21” for “averaged at each time point (Days 1, 5, 8, 12, and 15)”

Z4739 cell line = experiment: Whole transcriptome sequencing and GSEA of BCV-treated Z4739 cell line; type: cell-based; settings: Z4739 treated with 0.1 and 1 µg/mL of BCV
Procedure: The effect of BCV on the gene expression of a T-cell lymphoma cell line was examined. Whole transcriptome sequencing of the Z4739 cell line treated with 0.1 and 1 µg/mL of BCV was performed, and Gene set enrichment analysis (GSEA) was performed using the Molecular Signatures Database (MSigDB) Hallmark gene set. […] Individual gene expression profiles (IFNB1, IFNY, CCL5, CXCL10, MYC) obtained from the whole transcriptome sequencing results were expressed as the number of transcripts detected per million reads.

Z4739 cells = experiment: Western blotting of lysates of BCV-treated Z4739 cells; type: cell-based; settings: Z4739 treated with 0.1 and 1 µg/mL of BCV; Western blot, Fig. 13
Procedure: Lysates of Z4739 cells treated with 0.1 and 1 µg/mL of BCV were separated by SDS-PAGE using 4-15% Mini-PROTEAN™ TGX Stain-Free™ Protein Gels (Bio-Rad Laboratories, Hercules, CA, USA), and the separated components were transferred to a 0.2 µm PVDF membrane (Bio-Rad Laboratories, Hercules, California, USA). After blocking for 1 hour in a TBST solution (50 mM Tris/HCl, pH 7.4, 150 mM NaCl, 0.1% Tween-20) containing 5% skimmed milk powder (Bio-Rad Laboratories, Hercules, CA, USA) or 5% bovine serum albumin (Sigma-Aldrich, Darmstadt, Germany), the membrane was exposed to respective primary antibodies overnight at 4°C with gentle shaking. Furthermore, exposure to an HRP-conjugated anti-rabbit or anti-mouse antibody (Cytiva, Washington D.C., USA) was performed for 1 hour, and finally, chemiluminescent detection was performed using a SuperSignal Substrate Western Blotting Kit (Thermo Fisher Scientific, MA, USA) and imaged on a ChemiDoc™ XRS+ system (Bio-Rad Laboratories, Hercules, California, USA) using Image Lab™ software.

[5] = tested on: B-cell lymphoma cell lines; experiment: CellTiter-Glo 2.0 cell viability assay, B-cell lymphoma cell lines; type: cell-based; settings: 19 B-cell lymphoma cell lines; Fig. 14
Procedure: The effect of BCV on cell viability was examined in 19 different B-cell lymphoma cell lines and a CML cell line (K-562) as a control. Cell viability was quantified using Promega CellTiter-Glo(registered trademark) 2.0 Cell Viability Assay (Promega, Madison, Wisconsin, USA) according to the manufacturer's protocol. Specifically, cells were plated in a 96-well plate at a concentration of 2×10^3 cells in 100 µL of culture medium, and the drug (BCV) was added at each concentration. After each time point, Promega CellTiter-Glo(registered trademark) 2.0 Cell Viability Assay reagent was added to the wells and incubated at room temperature for 10 minutes, and subsequently, absorbance at 480 nm was measured using a Tecan M200 Infinite 96-well plate reader and iControl software 1.6 (Tecan, Männedorf, Switzerland). Cell viability was calculated as a percentage of a control absorbance. The growth-inhibitory effect was analyzed by generating a dose-response curve as a plot of the percentage of viable cells against the drug concentration, and their IC50s were estimated using GraphPad Prism version 8.0.2 (GraphPad Software). All reactions were performed in triplicate.

[6] = tested on: B-cell lymphoma cells (OCI-LY19); experiment: In vivo study, NSG mice inoculated with OCI-LY19
Procedure: as §1, with “of OCI-LY19” for “of NK-S1”, “recorded at each time point (Days 1, 5, 6, and 7)” for “recorded twice weekly”, “approximately 2500” for “approximately 2000”, “sizes and weights” for “sizes”, “group (n=5” for “group (n=8”, “averaged on Day 7” for “averaged at each time point (Days 1, 5, 8, 12, and 15)”

## CCCCCCCCCCCCCCCCOCCCOP(=O)(O)CO[C@H](CO)Cn1ccc(N)nc1=O [BCV, [(2S)-1-(4-amino-2-oxopyrimidin-1-yl)-3-hydroxypropan-2-yl]oxymethyl-(3-hexadecoxypropoxy)phosphinic acid]
[1]
  Sensitivity to BCV: varied for each cell line
  viability of NK/T-cell lymphoma cells: decreased
[2]; NK-S1 in NSG mice, 40 mg/kg intraperitoneally twice weekly
  animal's health status: good
[2]; NK-S1 in NSG mice, 40 mg/kg intraperitoneally twice weekly, Days 1-15, Figs. 2A-D
  enlargement of lymphoma (tumor size): significantly suppressed
[2]; mouse, in vivo, ip, 40 mg/kg
  signs of toxicity: diarrhea: no diarrhea observed
[3]
  Sensitivity to BCV: high in all cell lines
  viability of T-cell lymphoma cells: decreased
[4]; Z4739 in NSG mice, 40 mg/kg intraperitoneally twice weekly
  animal's health status: good
[4]; Z4739 in NSG mice, 40 mg/kg intraperitoneally twice weekly, Figs. 10A-D
  enlargement of the lymphoma (tumor size): significantly suppressed
[4]; Z4739 in NSG mice, 40 mg/kg intraperitoneally twice weekly, between Day 0 and Day 21, Fig. 10A
  tumor volume: almost no increase in tumor volume observed
[4]; mouse, in vivo, ip, 40 mg/kg
  signs of toxicity: weight loss or diarrhea: no significant weight loss or diarrhea was observed
Z4739 cell line
  expression of immune activation-related genes such as INFγ: increased
Z4739 cell line; Figs. 12A-C
  expression of MYC: decreased
Z4739 cell line; GSEA
  expression of MYC-related gene groups: decreased
  expression of other oncogenic genes such as those related to mTOR: decreased
Z4739 cells
  DNA damage (phospho-H2AX): increase
  MYC protein: decrease
  PD-L1: increase
  apoptosis indicators (cleaved PARP, cleaved caspase-3): increase
  cell cycle-related indicators (phospho-CHK1 Ser317/Ser345): increase
[5]
  Sensitivity to BCV: varied for each cell line
  viability of B-cell lymphoma cells: decreased
[6]; OCI-LY19 in NSG mice, 40 mg/kg intraperitoneally twice weekly
  animal's health status: good
[6]; OCI-LY19 in NSG mice, 40 mg/kg intraperitoneally twice weekly, Days 1-7, Figs. 15A-D
  enlargement of lymphoma (tumor size): significantly suppressed
[6]; mouse, in vivo, ip, 40 mg/kg
  signs of toxicity: weight loss or diarrhea: no weight loss or diarrhea observed
